These results are taken from PubChem BioAssay AID1053182 (The Scripps Research Institute Molecular Screening Center, 2014).

SMILES strings stand for the structures. Activity calls are given as the source filed them. No rule for the calls is given here. Bounds are passed on as bounds.

The EC50 is the concentration that produces a half-maximal response.

This assay deals with Trace amine-associated receptor 1 (Homo sapiens) (UniProt Q96RJ0). Kind of assay: TAAR1 agonist activity of antagonist analogs, SAR follow-up, counter-screen for TAAR1 antagonist project, cell-based, fluorescence, human, MedChem round 2 (AID 1053182). To be noted: TAAR1-expressing cells, cAMP fluorescence agonist mode. For orientation: The purpose of a counterscreen is to sort out artefacts and off-target activity.
Chain of Trace amine-associated receptor 1 (Homo sapiens) (Q96RJ0 whole entry, looked up, the tested form may be a part): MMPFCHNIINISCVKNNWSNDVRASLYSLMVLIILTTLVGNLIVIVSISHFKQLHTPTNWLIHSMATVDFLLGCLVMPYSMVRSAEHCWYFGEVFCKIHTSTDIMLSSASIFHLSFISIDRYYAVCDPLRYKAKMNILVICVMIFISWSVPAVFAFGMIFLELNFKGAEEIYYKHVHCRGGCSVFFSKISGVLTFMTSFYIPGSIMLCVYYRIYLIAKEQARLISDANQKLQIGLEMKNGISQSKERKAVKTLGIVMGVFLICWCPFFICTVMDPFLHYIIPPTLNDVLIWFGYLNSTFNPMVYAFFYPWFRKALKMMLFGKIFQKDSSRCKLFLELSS
With `COc1cc(C(=O)CCN2CCC(c3ccccc3)C2)cc(OC)c1OC` (configuration not stated), the EC50 was 122 nM.

Take `CC(CN1CCCC1Cc1ccccc1)C(=O)c1ccc2c(c1)OCCO2` (configuration not stated): the concentration giving a half-maximal response (EC50) is 245 nM.

Consider `O=C(CCN1CCC(c2ccccc2)C1)c1ccccc1` (configuration not stated), for which the concentration for a half-maximal effect (EC50) was 100 nM.

Regarding `N#Cc1c(C(F)(F)F)cc(-c2ccc(Cl)cc2)nc1SCC(=O)Nc1ncccn1`, the EC50 is > 29900 nM (inactive).

In the case of `Cc1ccc(C(=O)CCN2CCC(c3ccccc3)C2)cc1` (configuration not stated), the EC50 is 282 nM.

On to `N#Cc1c(C(F)(F)F)cc(-c2ccc(Cl)cc2)nc1SCC(=O)N1CCCC1`, for which the EC50 was > 29900 nM (inactive).

As to `N#Cc1c(C(F)(F)F)cc(-c2ccc(Cl)cc2)nc1SCC(=O)N1CCCCCC1`, the EC50 was > 29900 nM (inactive).
